Measurements taken from paper PMC4546622, “Structure of the Glycosyltransferase Ktr4p from Saccharomyces cerevisiae” (PLoS ONE, 2015).

Assays:
Ktr4p [1] = molecular target: T1, Ktr4p (Saccharomyces cerevisiae, UniProt P38131); assay: coupled phosphatase (ENTPD3/CD39L3) malachite green assay; type: biochemical; conditions: 10 μM enzyme, 10 mM MnCl2, 10 mM CaCl2, pH 7.5, 20°C
T1 construct: gene KTR4; lumenal domain (stalk plus catalytic), residues Asn-33 to Tyr-464; N-terminal His6 tag cut off with TEV protease; E. coli Rosetta-gami 2 (DE3); monomer fraction from SEC
T1 sequence (P38131 33-464): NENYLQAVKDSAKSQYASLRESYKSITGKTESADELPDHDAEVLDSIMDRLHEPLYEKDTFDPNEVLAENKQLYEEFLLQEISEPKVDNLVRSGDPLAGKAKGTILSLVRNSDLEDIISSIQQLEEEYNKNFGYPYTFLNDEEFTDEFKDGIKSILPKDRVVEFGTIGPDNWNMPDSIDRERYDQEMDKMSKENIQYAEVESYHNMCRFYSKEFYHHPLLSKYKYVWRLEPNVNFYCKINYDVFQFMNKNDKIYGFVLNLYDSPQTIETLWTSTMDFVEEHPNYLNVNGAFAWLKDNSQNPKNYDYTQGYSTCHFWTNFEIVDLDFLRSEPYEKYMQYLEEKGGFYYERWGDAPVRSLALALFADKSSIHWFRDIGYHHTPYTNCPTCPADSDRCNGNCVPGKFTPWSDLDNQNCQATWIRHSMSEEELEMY

Ktr4p [2] = molecular target: T1, Ktr4p; assay: X-ray crystal structure, […] Å; type: binding; conditions: with Mn2+ in the active site; 5 mM GDP and 5 mM MnCl2; pH 6.5; 4°C
[3] = molecular target: the molecule itself; assay: SEC; Superdex 200 16/60, 10 mM HEPES pH 7.4, 150 mM NaCl; final purification step; monomer and dimer peaks at a ratio of ~2:1, monomer peak the largest

## CO[C@H]1O[C@H](CO)[C@@H](O)[C@H](O)[C@@H]1O [methyl-α-mannoside]
Ktr4p [1]; sugar acceptor, 500 μM, 50 μM GDP-mannose
  coupled phosphatase (ENTPD3/CD39L3) malachite green assay: we observe the most efficient activity with methyl-α-mannoside

## Nc1nc2c(ncn2[C@@H]2O[C@H](COP(=O)(O)OP(=O)(O)O)[C@@H](O)[C@H]2O)c(=O)[nH]1 [GDP]
Ktr4p [2]
  X-ray crystal structure, 1.9 Å: 5a08 for the apo structure and 5a07 for the GDP-complex structure

## Nc1nc2c(ncn2[C@@H]2O[C@H](COP(=O)(O)OP(=O)(O)O[C@H]3O[C@H](CO)[C@@H](O)[C@H](O)[C@@H]3O)[C@@H](O)[C@H]2O)c(=O)[nH]1 [GDP-mannose]
Ktr4p [1]; sugar donor, 50 μM, 500 μM acceptor
  coupled phosphatase (ENTPD3/CD39L3) malachite green assay: GDP-mannose is a suitable sugar donor

B1: Ktr4p lumenal domain (residues Asn-33 to Tyr-464; stalk domain and catalytic domain) (domain or fragment, S. cerevisiae, UniProt P38131 33-464, looked up)
chain: NENYLQAVKDSAKSQYASLRESYKSITGKTESADELPDHDAEVLDSIMDRLHEPLYEKDTFDPNEVLAENKQLYEEFLLQEISEPKVDNLVRSGDPLAGKAKGTILSLVRNSDLEDIISSIQQLEEEYNKNFGYPYTFLNDEEFTDEFKDGIKSILPKDRVVEFGTIGPDNWNMPDSIDRERYDQEMDKMSKENIQYAEVESYHNMCRFYSKEFYHHPLLSKYKYVWRLEPNVNFYCKINYDVFQFMNKNDKIYGFVLNLYDSPQTIETLWTSTMDFVEEHPNYLNVNGAFAWLKDNSQNPKNYDYTQGYSTCHFWTNFEIVDLDFLRSEPYEKYMQYLEEKGGFYYERWGDAPVRSLALALFADKSSIHWFRDIGYHHTPYTNCPTCPADSDRCNGNCVPGKFTPWSDLDNQNCQATWIRHSMSEEELEMY
notes: Cloned in pNIC28-Bsa4 with a His6 tag and a TEV site N-terminal of the construct; the tag was removed with TEV protease; A few residues of the vector probably remain at the N-terminus after cleavage (surmised from the forward primer); Residues 33-69/70 are not visible in the structures; source: E. coli Rosetta-gami 2 (DE3), purified (Ni-NTA IMAC, TEV cleavage, second IMAC pass, Superdex 200 SEC); …
[3]
  stoichiometry N: 2
